Test results from patent publication US5512548A, “CETP inhibitor polypeptide, antibodies against the synthetic polypeptide and prophylactic and therapeutic anti-atherosclerosis treatments” (Southwest Foundation for Biomedical Research, priority 1994, dated 1996).

Tested on: CETP
Test: Cholesteryl ester transfer assay (CE transfer from 3H CE-HDL3 to VLDL+LDL with LPDS as CETP source)
Format: biochemical, baboon (Papio sp.)
Settings: electroeluted from gels, increasing concentrations, lipoproteins from low HDL1 baboons
Experimental: The CE transfer activity of a sample was assayed by a modification of a procedure described previously (Kushwaha et al, (1986), supra).
Briefly, ^3 H CE-labeled HDL3 containing 50-100 μg of CE from low HDL1 baboons was incubated with VLDL+LDL containing 100-300 μg CE in the presence of LPDS. The acceptor lipoproteins and the LPDS were obtained from low HDL1 baboon plasma (chow diet). In some cases the HDL3 was obtained from high HDL1 baboons maintained on the HCHF diet.
The incubations were carried out at 4° C. (control) and 37° C. for 4-6 hrs, and terminated by placing the samples on ice. The assay mixture was then ultracentrifuged to separate VLDL+LDL having a […], and the radioactivity in the lipoproteins was counted as described previously (Kushwaha et al, (1986), supra). Any difference observed in the radioactivity transferred from HDL to VLDL+LDL at 4° C. and 37° C. was attributed to CETP activity in the LPDS.
Time course experiments gave a linear response up to 7 hrs. Similarly, the CETP activity was linear with increasing LPDS, up to 140 μl LPDS, which was derived from an equivalent volume of plasma. […]
The percent difference between the control experiment and the assay with inhibitor peptide was expressed as the inhibitor activity. […]

For Albumin, which “effect on the transfer of CE from HDL to VLDL+LDL (CETP activity)” value is on record?
Its value is “no effect”.
